Read-outs that look alike come from different tables or passages of the source.
Experiments:
BRD4-BD12 (1-477) = BRD4-BD12 (1-477) (Homo sapiens (Human), UniProt O60885); assay: Alphascreen binding assay BRD4-BD12; conditions: BRD4(1 2) H4; read-out: Biochemical activity (IC50 μM) BRD4(1 2) H4
Method in brief: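 In this competition format, compounds displace a biotinylated tetra-acetyl H4 peptide from E. coli-expressed human BRD4 bromodomain constructs captured on nickel chelate beads. The reaction runs at pH 7.5 with 2 mM DTT and detergent for 1 h at room temperature before a 30 min bead step.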

bromodomain = assay: at least one of the bromodomain cell assays of Example 57; format: cell-based; conditions: at least one of the bromodomain cell assays described in Example 57; read-out: IC50 in at least one of the bromodomain cell assays
MV-4-11 cells = assay: Oncology cell growth assay MV-4-11 (CellTiter Glo); format: cell-based; conditions: Homo sapiens, MV4-11, 72 h, read-out: Cell activity (IC50 μM) MV-4-11 3d-Growth
Method in brief: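 Growth read by CellTiter Glo luminescence after 72 h compound treatment of MLL-AF4-bearing MV-4-11 cells (3000/well). Titration: 8 points, 1:3 steps, maximum 10 μM, 0.2% DMSO final. Data normalized to DMSO wells, four-parameter fit gives pIC50.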

Row | Structure (SMILES) | IC50 (BRD4-BD12 (1-477)) [µM] | IC50 (bromodomain) [µM] | IC50 (MV-4-11 cells; MV-4-11, 3d growth) [µM] | IC50 (MV-4-11 cells) [µM]
1 | CC(C)n1cc(-c2cnc3ccn(CC4CCC(F)(F)CC4)c3c2)ccc1=O [P-0518, 5-[1-[(4,4-difluorocyclohexyl)methyl]pyrrolo[3,2-b]pyridin-6-yl]-1-isopropyl-pyridin-2-one] | 1 to 10 | < 10 | 10 to 200 | –
2 | Cc1noc(C)c1-c1cnc2c(-c3ccc(C4(C#N)CC4)cc3)cn(CC3CCC(F)(F)CC3)c2c1 [P-0507, 1-[4-[1-[(4,4-difluorocyclohexyl)methyl]-6-(3,5-dimethylisoxazol-4-yl)pyrrolo[3,2-b]pyridin-3-yl]phenyl]cyclopropanecarbonitrile] | < 1 | < 10 | < 1 | –
3 | Cc1noc(C)c1-c1cnc2c(-c3cnn(C)c3)cn(CC3(F)CCC(F)(F)CC3)c2c1 [P-0381, 3,5-dimethyl-4-[3-(1-methylpyrazol-4-yl)-1-[(1,4,4-trifluorocyclohexyl)methyl]pyrrolo[3,2-b]pyridin-6-yl]isoxazole] | < 1 | < 10 | – | < 1
4 | Cc1noc(C)c1-c1cnc2c(-c3ccc(C(=O)O)cc3)cn([C@H](c3ccccc3)c3ccccn3)c2c1 [P-0722, 4-[6-(3,5-dimethylisoxazol-4-yl)-1-[(R)-phenyl(2-pyridyl)methyl]pyrrolo[3,2-b]pyridin-3-yl]benzoic acid] | < 1 | < 10 | < 1 | –
5 | Cc1nnn(C)c1-c1cnc2c(-c3cnn(C)c3)cn(CC3(F)CCC(F)(F)CC3)c2c1 [P-0424, 6-(3,5-dimethyltriazol-4-yl)-3-(1-methylpyrazol-4-yl)-1-[(1,4,4-trifluorocyclohexyl)methyl]pyrrolo[3,2-b]pyridine] | < 1 | < 10 | – | < 1
6 | Cc1noc(C)c1-c1cnc2c(c1)c(CC1CCC(F)(F)CC1)cn2-c1ccc(C(=O)O)cn1 [P-0430, 6-[3-[(4,4-difluorocyclohexyl)methyl]-5-(3,5-dimethylisoxazol-4-yl)pyrrolo[2,3-b]pyridin-1-yl]pyridine-3-carboxylic acid] | < 1 | < 10 | < 1 | –
7 | [2H]C([2H])(C1CCC(F)(F)CC1)n1cc(-c2cn(C)nc2C(F)(F)F)c2ncc(-c3c(C)noc3C)cc21 [P-0337, 4-[1-[dideuterio-(4,4-difluorocyclohexyl)methyl]-3-[1-methyl-3-(trifluoromethyl)pyrazol-4-yl]pyrrolo[3,2-b]pyridin-6-yl]-3,5-dimethyl-isoxazole] | < 1 | < 10 | – | < 1
8 | Cc1noc(C)c1-c1cnc2c(-c3ccc(-c4nnn[nH]4)cc3)cn(CC3(F)CCC(F)(F)CC3)c2c1 [P-0461, 3,5-dimethyl-4-[3-[4-(1H-tetrazol-5-yl)phenyl]-1-[(1,4,4-trifluorocyclohexyl)methyl]pyrrolo[3,2-b]pyridin-6-yl]isoxazole] | < 1 | < 10 | < 1 | –
9 | Cc1noc(C)c1-c1cnc2c(-c3ccc(C(=O)O)cc3)cn(Cc3cccnn3)c2c1 [P-0540, 4-[6-(3,5-dimethylisoxazol-4-yl)-1-(pyridazin-3-ylmethyl)pyrrolo[3,2-b]pyridin-3-yl]benzoic acid] | < 1 | < 10 | < 1 | –
10 | Cc1noc(C)c1-c1cnc2c(-c3ccc(C(=O)O)cc3F)cn(CC3(F)CCCCC3)c2c1 [P-0468, 4-[6-(3,5-dimethylisoxazol-4-yl)-1-[(1-fluorocyclohexyl)methyl]pyrrolo[3,2-b]pyridin-3-yl]-3-fluoro-benzoic acid] | < 1 | < 10 | < 1 | –
11 | Cc1noc(C)c1-c1cnc2c(-c3cnn(CC(F)(F)F)c3)cn([C@@H](C)c3ccc(F)cc3)c2c1 [P-0354, 4-[1-[(1S)-1-(4-fluorophenyl)ethyl]-3-(1-(2,2,2-trifluoroethyl)pyrazol-4-yl]pyrrolo(3,2-b)pyridin-6-yl]-3,5-dimethyl-isoxazole] | < 1 | < 10 | – | < 1
12 | Cc1ccc(-c2cn(Cc3ccccn3)c3cc(-c4c(C)noc4C)cnc23)cc1 [P-0805, 3,5-dimethyl-4-[3-(p-tolyl)-1-(2-pyridylmethyl)pyrrolo[3,2-b]pyridin-6-yl]isoxazole] | < 1 | < 10 | < 1 | –
13 | Cc1noc(C)c1-c1cnc2c(-c3cnn(CC(F)(F)F)c3)cn([C@H](C)c3ccc(F)cc3)c2c1 [P-0351, 4-[1-[(1R)-1-(4-fluorophenyl)ethyl]-3-[1-(2,2,2-trifluoroethyl)pyrazol-4-yl]pyrrolo[3,2-b]pyridin-6-yl]-3,5-dimethyl-isoxazole] | < 1 | < 10 | – | < 1
14 | Cc1noc(C)c1-c1cnc2c(-c3cnc(N)cn3)cn(CC3CCC(F)(F)CC3)c2c1 [P-0399, 5-[1-[(4,4-difluorocyclohexyl)methyl]-6-(3,5-dimethylisoxazol-4-yl)pyrrolo[3,2-b]pyridin-3-yl]pyrazin-2-amine] | < 1 | < 10 | – | < 1
15 | Cc1noc(C)c1-c1cnc2c(-c3ccc(C#N)nc3)cn(C(c3ccccn3)c3ccccn3)c2c1 [P-0597, 5-[1-[bis(2-pyridyl)methyl]-6-(3,5-dimethylisoxazol-4-yl)pyrrolo[3,2-b]pyridin-3-yl]pyridine-2-carbonitrile] | < 1 | < 10 | < 1 | –
16 | COC(=O)c1ccc(-c2cn(CC3(F)CCCCC3)c3cc(-c4c(C)noc4C)cnc23)cn1 [P-0453, methyl 5-[6-(3,5-dimethylisoxazol-4-yl)-1-[(1-fluorocyclohexyl)methyl]pyrrolo[3,2-b]pyridin-3-yl]pyridine-2-carboxylate] | < 1 | < 10 | < 1 | –
17 | CCn1cc(-c2cn(CC3CCC(F)(F)CC3)c3cc(-c4c(C)noc4C)cnc23)cn1 [P-0409, 4-[1-[(4,4-difluorocyclohexyl)methyl]-3-(1-ethylpyrazol-4-yl)pyrrolo[3,2-b]pyridin-6-yl]-3,5-dimethyl-isoxazole] | < 1 | < 10 | – | < 1
18 | Cc1noc(C)c1-c1cnc2c(-c3ccc(F)c(C(=O)O)c3)cn(CC3(F)CCCCC3)c2c1 [P-0467, 5-[6-(3,5-dimethylisoxazol-4-yl)-1-[(1-fluorocyclohexyl)methyl]pyrrolo[3,2-b]pyridin-3-yl]-2-fluoro-benzoic acid] | < 1 | < 10 | < 1 | –
19 | Cc1noc(C)c1-c1cnc2c(-c3ccccc3C(=O)O)cn(CC3(F)CCCCC3)c2c1 [P-0501, 2-[6-(3,5-dimethylisoxazol-4-yl)-1-[(1-fluorocyclohexyl)methyl]pyrrolo[3,2-b]pyridin-3-yl]benzoic acid] | < 1 | < 10 | < 1 | –
20 | Cc1ccc(-c2cn(CC3CCC(F)(F)CC3)c3cc(-c4c(C)noc4C)cnc23)cc1C(=O)O [P-0415, 5-[1-[(4,4-difluorocyclohexyl)methyl]-6-(3,5-dimethylisoxazol-4-yl)pyrrolo[3,2-b]pyridin-3-yl]-2-methyl-benzoic acid] | < 1 | < 10 | – | < 1
21 | Cc1noc(C)c1-c1cnc2c(-c3ccc(C(C)(C)C(=O)O)cc3)cn(CC3(C)CCOCC3)c2c1 [P-0778, 2-[4-[6-(3,5-dimethylisoxazol-4-yl)-1-[(4-methyltetrahydropyran-4-yl)methyl]pyrrolo[3,2-b]pyridin-3-yl]phenyl]-2-methyl-propanoic acid] | < 1 | < 10 | 1 to 10 | –
22 | CC(=O)Nc1ccc(-c2cn(CC3(F)CCCCC3)c3cc(-c4c(C)noc4C)cnc23)cc1 [P-0496, N-[4-[6-(3,5-dimethylisoxazol-4-yl)-1-[(1-fluorocyclohexyl)methyl]pyrrolo[3,2-b]pyridin-3-yl]phenyl]acetamide] | < 1 | < 10 | < 1 | –
23 | [2H]C([2H])(C1CCC(F)(F)CC1)n1cc(-c2cnn(C)c2C)c2ncc(-c3c(C)noc3C)cc21 [P-0338, 4-[1-[dideuterio-(4,4-difluorocyclohexyl)methyl]-3-(1,5-dimethylpyrazol-4-yl)pyrrolo[3,2-b]pyridin-6-yl]-3,5-dimethyl-isoxazole] | < 1 | < 10 | – | < 1
24 | Cc1noc(C)c1-c1cnc2c(-c3ccc(C(=O)O)nc3)cn(CC3(F)CCC(F)(F)CC3)c2c1 [P-0456, 5-[6-(3,5-dimethylisoxazol-4-yl)-1-[(1,4,4-trifluorocyclohexyl)methyl]pyrrolo[3,2-b]pyridin-3-yl]pyridine-2-carboxylic acid] | < 1 | < 10 | < 1 | –
25 | Cc1noc(C)c1-c1cnc2c(-c3ccc(C(=O)NC4CC4)nc3)cn([C@@H](C)c3ccccn3)c2c1 [P-0543, N-cyclopropyl-5-[6-(3,5-dimethylisoxazol-4-yl)-1-[(1S)-1-(2-pyridyl)ethyl]pyrrolo[3,2-b]pyridin-3-yl]pyridine-2-carboxamide] | < 1 | < 10 | < 1 | –
26 | [2H]C([2H])(O)c1ccc(-c2cn(CC3CCC(F)(F)CC3)c3cc(-c4c(C)noc4C)cnc23)cc1 [P-0571, dideutrio-[4-[1-[(4,4-difluorocyclohexyl)methyl]-6-(3,5-dimethylisoxazol-4-yl)pyrrolo[3,2-b]pyridin-3-yl]phenyl]methanol] | < 1 | < 10 | < 1 | –

Reference: patent US10519177B2, “Heterocyclic compounds and uses thereof” (Plexxikon Inc., priority 2013, dated 2019)
